Data from US20240010610A1, “COMPOUNDS FOR TREATING SEGMENTAL PROGEROID SYNDROMES” (Progelife, priority 2020, published 2024).
Read-outs that look alike come from different tables or passages of the source. Marks after values point to notes of the source that are not given here. Where a SMILES comes first, the peptide text is derived from it. The star is where a group is joined. Cbz = O=C(OCc1ccccc1)*

Tests used:
[1] = tested on: progerin; assay: Progerin expression by western blot, normalised to total protein (Revert protein stain); assay type: cell-based, human; conditions: T=72 hours, mean of n=3 unless footnoted; for Mean decrease of progerin expression relative to DMSO control: compounds tested at CV25, HGPS cells; for Mean change of progerin expression relative to DMSO control: compounds tested at CV75, HGPS cells, decrease (−) or increase
Description: All molecules were diluted in DMSO at 10 mM. […] Drug efficiency was evaluated in 6-well plates.
Total fibroblast proteins were extracted after 72 hours treatment in 100 μL of NP40 (Invitrogen) with 1× protease and phosphatase inhibitor cocktail (Life Technologies). Lysats were incubated on ice for 30 minutes, with vortexing at 10-minute intervals. Finally, they were sonicated four times (20 sec each) and then centrifuged at 13000 rpm for 10 minutes at 4° C.
Protein concentrations were determined with the BCA™ Protein Assay (Life Technologies).
Protein lysates were separated on Nupage Novex 4-12% Bis-Tris Midi precast gels (Life Technologies) and transferred to Immobilon-FL PVDF membranes (Millipore, Molsheim, France). Membranes were blocked for one hour in 1:1 diluted blocking buffer for near infrared fluorescent western blotting (Rockland, Le Perray, France). Blocked membranes were incubated with primary antibodies overnight at 4° C., following which they were washed and incubated with IR-Dye conjugated secondary antibodies for one hour at RT. Bound antibodies were detected and analyzed on an Odyssey imaging system (Li-COR Biosciences, Bad Homburg, Germany) according to the manufacturer's instructions. Revert Protein Stain (Li-COR Biosciences) was used as a total protein loading control in addition to two traditional protein loading control GAPDH and Actin. Progerin and SRSF1 levels were quantified and normalized by Revert staining using Image Studio Lite™ software developed by Li-COR.
The following antibodies were used in this study: rabbit monoclonal anti-lamin A/C (ab108922, 1/1000, Abcam, Amsterdam, Netherlands), rabbit monoclonal anti-SRSF1 (SF2) (ab129108, 1/1000, Abcam), mouse monoclonal anti-GAPDH (MAB374, 1/40000, Millipore, Molsheim, France) and mouse monoclonal anti-actin (MAB1501R, 1/10000, Millipore. Secondary antibodies conjugated with IR-Dye 800CW or 680 were used according to the manufacturer's instructions (926-32213 and 926-68072, 1/5000, Li-COR Biosciences).
(§1) Mean decrease of progerin expression (presented as a percentage of the concentration measured in DMSO control) with compounds tested at CV25, in HGPS cells at T=72 hours, determined by western blot analysis and normalised to the total amount of protein (Revert protein stain) (mean of n=3 (range)) is presented in the following Table 1:
as §1, with “change (decrease (−) or increase)” for “decrease”, “CV75,” for “CV25,”, “2: […]” for “1:”

[2] = tested on: HGPS fibroblast; assay: Cell viability and assessment of toxicity (PrestoBlue, dose response); conditions: 72 hours of treatment
Description: (§2) Fibroblasts from HGPS donors from passage 18 to 24 were cultured in DMEM low glucose (Life Technologies, Courtabœuf, France) containing 15% FBS (Life Technologies), 2 mM L-glutamine (Life Technologies) and 100 U/mL penicillin-streptomycin (Life Technologies) at 37° C. in a humidified atmosphere containing 5% CO2.
(§3) All molecules were diluted in DMSO at 10 mM. Concentrations from 100 μM to 0.0001 nM were used to test cell viability in 96-well plates. Drug efficiency was evaluated in 6-well plates.
(§4) Assays were carried out in 96-well microplates. After 72 hours of treatment, the cells were washed once with 100 μL DPBS (no calcium, no magnesium). Then 100 μl of PrestoBlue solution (Life Technologies) diluted at 10% in DPBS was added to each well. Plates were incubated at 37° C. for 30 minutes. The fluorescence intensity was measured by multiwell plate reader (Glomax microplate reader, Promega, Charbonnières les Bains, France) using green filter (Excitation 525 nm/emission 580-640 nm). Fluorescence intensities values were pasted in Prism Software (Graph Pad, San Diego, CA) to perform a dose response analysis. CV25 correspond to drug concentrations at which HGPS fibroblast cell viability was 25%. CV75 correspond to drug concentrations at which HGPS fibroblast cell viability was 75%.

[3] = tested on: HGPS fibroblast; conditions: human, 72 h
Description: as §2, §3, §4

| SMILES | CV25 [3] | CV75 [3] | Mean decrease of progerin expression relative to DMSO control [1] | Mean change of progerin expression relative to DMSO control [1] | CV25 ([2]; drug concentration at which HGPS fibroblast cell viability was 25%) | CV75 ([2]; drug concentration at which HGPS fibroblast cell viability was 75%) |
| --- | --- | --- | --- | --- | --- | --- |
| CC(C)C[C@@H](C=O)NC(=O)[C@H](CC(C)C)NC(=O)[C@H](CC(C)C)NC(=O)OCc1ccccc1 [Compound 1, Z-Leu-Leu-Leucinal, reference compound] (Cbz-Leu-Leu-Leu-aldehyde) | – | – | 67* % | −3* % | 0.270 µM | 0.137 µM |
| CC(=O)N[C@@H](CC(C)C)C(=O)N[C@@H](CC(C)C)C(=O)N[C@H](C=O)CC(C)C [Compound 3] (Ac-Leu-Leu-Leu-aldehyde) | 1.800 µM | 0.720 µM | 71% | 0% | – | – |
| CC(C)C[C@@H](C=O)NC(=O)[C@H](CC(C)C)NC(=O)[C@H](Cc1ccccc1)NC(=O)OCc1ccccc1 [Compound 4, Z-Phenylalanine-Leucine-Leucinal] (Cbz-Phe-Leu-Leu-aldehyde) | 0.402 µM | 0.133 µM | 70% | −12% | – | – |
| CC(C)C[C@@H](C=O)NC(=O)[C@H](Cc1ccccc1)NC(=O)[C@H](CC(C)C)NC(=O)OCc1ccccc1 [Compound 6, Z-Leucine-Phenylalanine-Leucinal] (Cbz-Leu-Phe-Leu-aldehyde) | 0.142 µM | 0.060 µM | 69% | 6% | – | – |
| CC(C)C[C@@H](C=O)NC(=O)[C@H](CC(C)C)NC(=O)[C@H](CC(C)C)NC(=O)c1cnccn1 [Compound 7] | 5.5 µM | 2.1 µM | 79% | −36% | – | – |
| CC(C)C[C@@H](C=O)NC(=O)[C@H](CC(C)C)NC(=O)[C@H](CC(C)C)NC(=O)c1cc(Cl)ccc1Cl [Compound 12] | 0.063 µM | 0.001 µM | 61** % | −1** % | – | – |
| CC(C)C[C@@H](/C=N/NC(N)=O)NC(=O)[C@H](CC(C)C)NC(=O)[C@H](CC(C)C)NC(=O)OCc1ccccc1 [Compound 16] | 1.750 µM | 0.195 µM | 66% | 0% | – | – |

Continued, in another order:

| CV25 [3] | CV75 [3] | SMILES | Mean decrease of progerin expression relative to DMSO control [1] | Mean change of progerin expression relative to DMSO control [1] | CV25 ([2]; drug concentration at which HGPS fibroblast cell viability was 25%) | CV75 ([2]; drug concentration at which HGPS fibroblast cell viability was 75%) |
| --- | --- | --- | --- | --- | --- | --- |
| 0.152 µM | 0.073 µM | CC(C)C[C@@H](C=O)NC(=O)[C@H](CC(C)C)NC(=O)[C@H](CC(C)C)NC(=O)Cc1ccc(F)cc1F [Compound 8] | 47% | −16% | – | – |
| 0.020 µM | 0.007 µM | CC(C)C[C@H](NC(=O)OCc1ccccc1)C(=O)N[C@@H](CC(C)C)C(=O)N[C@H](C(=O)N[C@H](C=O)Cc1ccc(O)cc1)C(C)C [Compound 13] (Cbz-LLVY-aldehyde) | 68*** % | −29*** % | – | – |
| 0.589 µM | 0.155 µM | CC(C)C[C@@H](C=O)NC(=O)[C@H](CC(C)C)NC(=O)[C@H](CC(C)C)NC(=O)Cc1cccc(CC(=O)N[C@@H](CC(C)C)C(=O)N[C@@H](CC(C)C)C(=O)N[C@H](C=O)CC(C)C)c1 [Compound 14] | 66% | −1% | – | – |
